This is an account of results in patent publication US9670227B2, “Thienopyrimidine derivatives, a process for their preparation and pharmaceutical compositions containing them” (LES LABORATOIRES SERVIER, priority 2013, dated 2017).

Structures are written as SMILES. Read-outs that look alike come from different tables or passages of the source.

The target of one experiment is Mcl-1 protein (UniProtKB primary accession number: Q07820) (Homo sapiens, UniProt Q07820). Briefly: Inhibition of Mcl-1 by fluorescence polarisation, Method 1. To be noted: for IC50: read-out: IC50 (M) Mcl-1 FP. It is filed as binding. The gist of the method:
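An 11-point DMSO dilution of compound is mixed with buffer (10 mM HEPES, 150 mM NaCl, 0.05% Tween 20, pH 7.4) carrying 1 nM fluorescein-labelled ligand and 5 nM Mcl-1, final concentrations. Displacement is monitored by fluorescence polarisation.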
(Fluorescence polarisation rises when a labelled molecule tumbles more slowly, as on binding a larger partner.)

The subject of experiment [1] is H929 multiple myeloma tumour line. Briefly: In vitro cytotoxicity, Microculture Tetrazolium Assay. The conditions noted are these: H929 cells, 48 hours exposure, MTT, read-out: IC50 (μM) MTT H929. It is filed as cell-based. The procedure:
The cytotoxicity studies were carried out on the H929 multiple myeloma tumour line.
The cells are distributed onto microplates and exposed to the test compounds for 48 hours.

Setting [2] is: fluorescence polarisation, Method 1, or Method 2.
[3] abbreviates: fluorescence polarisation test, Method 2 values are underlined in the patent (underlining not visible here).

Sequence of Mcl-1 protein (Q07820 whole entry): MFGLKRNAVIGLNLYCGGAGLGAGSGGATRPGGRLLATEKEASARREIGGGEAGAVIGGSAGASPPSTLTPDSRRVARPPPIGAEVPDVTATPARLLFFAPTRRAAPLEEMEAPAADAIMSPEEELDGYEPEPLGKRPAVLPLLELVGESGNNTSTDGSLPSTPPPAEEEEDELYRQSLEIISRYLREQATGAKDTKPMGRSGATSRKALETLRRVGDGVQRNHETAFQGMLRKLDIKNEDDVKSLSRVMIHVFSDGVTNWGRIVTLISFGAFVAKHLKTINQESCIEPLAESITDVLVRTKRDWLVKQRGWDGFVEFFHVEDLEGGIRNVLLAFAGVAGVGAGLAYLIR

On to `COc1ccccc1CC(Oc1ncnc2sc(-c3ccc(C4CC4)o3)c(-c3ccc(OCCN4CCN(C)CC4)c(Cl)c3C)c12)C(=O)O` [Example 585, (2R)-2-{[(5Sa)-5-{3-chloro-2-methyl-4-[2-(4-methylpiperazin-1-yl)ethoxy]phenyl}-6-(5-cyclopropylfuran-2-yl)thieno[2,3-d]pyrimidin-4-yl]oxy}-3-(2-methoxyphenyl)propanoic acid], for which the IC50 at Mcl-1 protein (setting [2]) came to 8.5e-08 M; in experiment [1] (Homo sapiens, NCI-H929, 48 h) it was 2.92 µM.
Turning to `COc1cc(COc2ccccc2CC(Oc2ncnc3sc(-c4ccc(F)cc4)c(-c4ccc(OCCN5CCN(C)CC5)c(Cl)c4C)c23)C(=O)O)nc(OC)n1` [Example 8, (2R)-2-{[(5Sa)-5-{3-chloro-2-methyl-4-[2-(4-methylpiperazin-1-yl)ethoxy]phenyl}-6-(4-fluorophenyl)thieno[2,3-d]pyrimidin-4-yl]oxy}-3-{2-[(2,6-dimethoxypyrimidin-4-yl)methoxy]phenyl}propanoic acid], the half-maximal inhibitory concentration (IC50) was determined as 1.6e-08 M on Mcl-1 protein (setting [3]) and 0.145 µM in experiment [1] (Homo sapiens, NCI-H929, 48 h).
Turning to `C#Cc1sc2ncnc(OC(Cc3ccccc3OCc3ccnn3CCCC)C(=O)O)c2c1-c1ccc(OCCN2CCN(C)CC2)c(Cl)c1C` [Example 611, (2R)-3-{2-[(1-butyl-1H-pyrazol-5-yl)methoxy]phenyl}-2-[((5Sa)-5-{3-chloro-2-methyl-4-[2-(4-methylpiperazin-1-yl)ethoxy]phenyl}-6-ethynylthieno[2,3-d]pyrimidin-4-yl)oxy]propanoic acid], the IC50 on Mcl-1 protein (setting [2]) was found to be 3.9e-09 M; in experiment [1] (Homo sapiens, NCI-H929, 48 h), 0.23 µM.
The matching figures for `CCN1CCN(CCOc2ccc(-c3c(-c4ccco4)sc4ncnc(OC(Cc5ccccc5OCc5ccnc(OC)n5)C(=O)O)c34)c(C)c2Cl)CC1` [Example 670, (2R)-2-{[(5Sa)-5-{3-chloro-4-[2-(4-ethylpiperazin-1-yl)ethoxy]-2-methylphenyl}-6-(furan-2-yl)thieno[2,3-d]pyrimidin-4-yl]oxy}-3-{2-[(2-methoxypyrimidin-4-yl)methoxy]phenyl}propanoic acid]: 3.2e-09 M and 0.027 µM.
In the case of `Cc1c(-c2c(-c3ccc(F)o3)sc3ncnc(OC(Cc4ccccc4OCCOCCO)C(=O)O)c23)ccc(OCCN2CCN(C)CC2)c1Cl` [Example 195, (2R)-2-{[(5Sa)-5-{3-chloro-2-methyl-4-[2-(4-methylpiperazin-1-yl)ethoxy]phenyl}-6-(5-fluorofuran-2-yl)thieno[2,3-d]pyrimidin-4-yl]oxy}-3-{2-[2-(2-hydroxyethoxy)ethoxy]phenyl}propanoic acid], the IC50 came to 5.5e-09 M on Mcl-1 protein (setting [3]) and 0.311 µM in experiment [1] (Homo sapiens, NCI-H929, 48 h).
In the same order, the values of `Cc1c(-c2c(-c3ccco3)sc3ncnc(OC(Cc4ccccc4OCc4ccnc(Cl)n4)C(=O)O)c23)ccc(OCCN2CCN(C)CC2)c1Cl` [Example 249, (2R)-2-{[(5Sa)-5-{3-chloro-2-methyl-4-[2-(4-methylpiperazin-1-yl)ethoxy]phenyl}-6-(furan-2-yl)thieno[2,3-d]pyrimidin-4-yl]oxy}-3-{2-[(2-chloropyrimidin-4-yl)methoxy]phenyl}propanoic acid] are 4e-09 M and 0.023 µM.
In the same order, the values of `COc1ccccc1CC(Oc1ncnc2sc(-c3ccco3)c(-c3ccc(OCC4CCCN4C)c(Cl)c3C)c12)C(=O)O` [Example 298, (2R)-2-{[(5Sa)-5-(3-chloro-2-methyl-4-{[(2S)-1-methylpyrrolidin-2-yl]methoxy}phenyl)-6-(furan-2-yl)thieno[2,3-d]pyrimidin-4-yl]oxy}-3-(2-methoxyphenyl)propanoic acid] are 1.2e-08 M and 1.14 µM.
In the same order, the values of `Cc1c(-c2c(-c3ccco3)sc3ncnc(OC(Cc4ccccc4OCc4ccnc(NCc5ccccc5)n4)C(=O)O)c23)ccc(OCCN2CCN(C)CC2)c1Cl` [Example 254, (2R)-3-(2-{[2-(benzylamino)pyrimidin-4-yl]methoxy}phenyl)-2-{[(5Sa)-5-{3-chloro-2-methyl-4-[2-(4-methylpiperazin-1-yl)ethoxy]phenyl}-6-(furan-2-yl)thieno[2,3-d]pyrimidin-4-yl]oxy}propanoic acid] are 3.3e-09 M and 0.044 µM.
In the case of `Cc1cc(-c2sc3ncnc(OC(Cc4ccccc4)C(=O)O)c3c2-c2ccc(OCCN3CCN(C)CC3)c(Cl)c2C)cs1` [Example 514, (2R)-2-{[(5Sa)-5-{3-chloro-2-methyl-4-[2-(4-methylpiperazin-1-yl)ethoxy]phenyl}-6-(5-methylthiophen-3-yl)thieno[2,3-d]pyrimidin-4-yl]oxy}-3-phenylpropanoic acid], the IC50 was found to be 9.6e-08 M on Mcl-1 protein (setting [2]) and 1.7 µM in experiment [1] (Homo sapiens, NCI-H929, 48 h).
In the case of `CCCOc1nccc(COc2ccccc2CC(Oc2ncnc3sc(-c4ccc(F)cc4)c(-c4ccc(OCCN5CCN(C)CC5)c(Cl)c4C)c23)C(=O)O)n1` [Example 61, (2R)-2-{[(5Sa)-5-{3-chloro-2-methyl-4-[2-(4-methylpiperazin-1-yl)ethoxy]phenyl}-6-(4-fluorophenyl)thieno[2,3-d]pyrimidin-4-yl]oxy}-3-{2-[(2-propoxypyrimidin-4-yl)methoxy]phenyl}propanoic acid], the IC50 amounted to 6.7e-09 M on Mcl-1 protein (setting [3]) and 0.01 µM in experiment [1] (Homo sapiens, NCI-H929, 48 h).
For the compound `CCc1sc2ncnc(O[C@H](Cc3ccccc3)C(=O)O)c2c1-c1ccc(OCCN(C)C)c(Cl)c1C` [Example 408, (2R)-2-[((5Ra)-5-{3-chloro-4-[2-(dimethylamino)ethoxy]-2-methylphenyl}-6-ethylthieno[2,3-d]pyrimidin-4-yl)oxy]-3-phenylpropanoic acid], the “percentage fluorescence polarisation inhibition, Mcl-1 FP” value on Mcl-1 protein (partial inhibitors, @ 10 uM test compound) is reported as 26.25% @ 10 uM. In experiment [1], the half-maximal inhibitory concentration (IC50) is 15.9 µM.
Turning to `COc1ccc(COc2ccccc2CC(Oc2ncnc3sc(-c4cccc(F)c4)c(-c4ccc(OCCN5CCN(C)CC5)c(Cl)c4C)c23)C(=O)O)cc1` [Example 710, (2R)-2-{[(5Sa)-5-{3-chloro-2-methyl-4-[2-(4-methylpiperazin-1-yl)ethoxy]phenyl}-6-(3-fluorophenyl)thieno[2,3-d]pyrimidin-4-yl]oxy}-3-{2-[(4-methoxybenzyl)oxy]phenyl}propanoic acid], the IC50 at Mcl-1 protein (setting [2]) is 2.4e-09 M; in experiment [1] (Homo sapiens, NCI-H929, 48 h), 0.384 µM.
Turning to `CCc1sc2ncnc(OC(Cc3ccccc3)C(=O)O)c2c1-c1cc(CN2CCN(C)CC2)c(OC)c(Cl)c1C` [Example 434, (2R)-2-[((5Sa)-5-{3-chloro-4-methoxy-2-methyl-5-[(4-methylpiperazin-1-yl)methyl]phenyl}-6-ethylthieno[2,3-d]pyrimidin-4-yl)oxy]-3-phenylpropanoic acid], the IC50 at Mcl-1 protein (setting [2]) was determined as 1.7e-07 M; in experiment [1] (Homo sapiens, NCI-H929, 48 h), 11.3 µM.
In the same order, the values of `C#Cc1cccc(-c2sc3ncnc(OC(Cc4ccccc4OC)C(=O)O)c3c2-c2ccc(OCCN3CCN(C)CC3)c(Cl)c2C)c1` [Example 547, (2R)-2-{[(5Sa)-5-{3-chloro-2-methyl-4-[2-(4-methylpiperazin-1-yl)ethoxy]phenyl}-6-(3-ethynylphenyl)thieno[2,3-d]pyrimidin-4-yl]oxy}-3-(2-methoxyphenyl)propanoic acid] are 3.3e-08 M and 0.475 µM.
With `COc1ncc(COc2ccccc2CC(Oc2ncnc3sc(-c4ccco4)c(-c4ccc(OCCN5CCN(C)CC5)c(Cl)c4C)c23)C(=O)O)cn1` [Example 274, (2R)-2-{[(5Sa)-5-{3-chloro-2-methyl-4-[2-(4-methylpiperazin-1-yl)ethoxy]phenyl}-6-(furan-2-yl)thieno[2,3-d]pyrimidin-4-yl]oxy}-3-{2-[(2-methoxypyrimidin-5-yl)methoxy]phenyl}propanoic acid], the IC50 at Mcl-1 protein (setting [3]) came to 7.7e-09 M; in experiment [1] (Homo sapiens, NCI-H929, 48 h), 0.131 µM.

As usually defined, the IC50 is the midpoint of a concentration-inhibition curve.
